Consider four compounds from patent US20250206776A1, “ENZYME-INSTRUCTED SELF-ASSEMBLY OF PEPTIDES CONTAINING N-TERMINAL PHOSPHO-AROMATIC CAPPING MOTIF, AND USES THEREOF” (BRANDEIS UNIVERSITY, priority 2021, published 2025).

Each structure is given as a SMILES string.

One may read the log P as the decadic logarithm of the partition coefficient of the neutral form, usually between octanol and water.

For data set [1], the system named is SJSA1 cells. Kind of data set: MTT assay, SJSA1 cells. The format is cell-based, human. To be noted: SJSA1, 2 h, presence or absence of DQB (20 μM). On the procedure:
(§1) Cell Culture: Saos2, SJSA1 and HepG2 cells were purchased from American Type Culture Collection (ATCC, USA). Saos2 cells were cultured in McCoy's 5A Medium (Gibco, Life Technologies) supplemented with 15% (v/v) fetal bovine serum (FBS) (Gibco, Life Technologies), 100 U/mL penicillin and 100 µg/mL streptomycin (Gibco, Life Technologies); SJSA1 cell were culture in RPMI1640 (ATCC, USA) Medium supplemented with 10% (v/v) FBS, 100 U/mL penicillin and 100 µg/mL streptomycin; HepG2 cells were cultured in Minimal Essential Medium (MEM) (Gibco, Life Technologies) supplemented with 10% (v/v) FBS, 100 U/mL penicillin and 100 µg/mL streptomycin. All the cells were maintained at 37° C. in a humidified atmosphere of 5% CO2.
MTT Assay: Cells were seeded in 96-well plates at 1×10^4 cells/well for 24 hours to allow attachment. After removing the culture medium, fresh culture medium containing different concentration of the precursors were added. […] 100 μL of SDS-HCl solution was then added to stop the reduction reaction and dissolve the formazan. The absorbance of each well at 595 nm was measured by a DTX880 Multimode Detector. The results were calculated as cell viability percentage relative to untreated cells. The MTT assay was performed in triplet (n=3) and the average value of the three measurements was taken. […]

Data set [2] has as its system Saos2 cells. In words: MTT assay, Saos2 cells. The format is cell-based, human. To be noted: Saos2, 2 h, presence or absence of DQB (20 μM). On the procedure:
as §1
MTT Assay: Cells were seeded in 96-well plates at 1×10^4 cells/well for 24 hours to allow attachment. After removing the culture medium, fresh culture medium containing different concentration of the precursors were added. After 24/48/72 hours, 10 μL MTT (ACROS Organics) solution (5 mg/mL) was added to each well to incubate at 37° C. for 4 h. 100 μL of SDS-HCl solution was then added to stop the reduction reaction and dissolve the formazan. The absorbance of each well at 595 nm was measured by a DTX880 Multimode Detector. The results were calculated as cell viability percentage relative to untreated cells. […]
A general note: Tetrazolium dyes change colour on reduction, which living cells bring about.

For data set [3] the following is noted: hydrophobicity of the aromatic group; cited from earlier work.
Data set [4] in a line: Solubility in PBS buffer / water. To be noted: compared with 6. The format is physicochemical.

Take `COC(=O)CC[C@@H](NC(=O)[C@@H](Cc1ccccc1)NC(=O)[C@@H](Cc1ccccc1)NC(=O)c1ccc(-c2ccc(OP(=O)(O)O)cc2)cc1)C(=O)OC` [9P]: the “cytotoxicity compared to 10P (cell viability)” value in data set [1] and in data set [2] was “higher cytotoxicity” each time.
In the case of `c1ccc(-c2ccccc2)cc1` [biphenyl], in data set [3], the “log P” value is recorded as 3.71.
With `O=C(N[C@H](Cc1ccccc1)C(=O)N[C@H](Cc1ccccc1)C(=O)O)c1ccc2cc(O)ccc2c1` [compound 4, NP-ff], in data set [4], the relative water solubility result is on record as “more water soluble than 6”.
On to `O=C(N[C@H](Cc1ccccc1)C(=O)N[C@H](Cc1ccccc1)C(=O)O)c1ccc(O)cc1` [compound 2, B-ff], for which the relative water solubility entry in data set [4] was “more water soluble than 6”.
